Test results from patent US20240254095A1, “NMDA Receptor Antagonist and Use Thereof” (priority 2021, published 2024).
“Also recorded” adds a separate entry of the source. Where a name gives a salt, the structure may show the parent alone.

target: T1, human NMDA receptors GluN1 and GluN2A subunits (GluN2A-containing NMDAR) (Homo sapiens, UniProt Q05586+Q12879); experiment: cell-based; conditions: not given
T1 construct: expressed in transfected cells; host or cells: HEK293 cells, transient liposome transfection of TRE-GluN1-GluN2A, tTA and pCAG-EGFP
T1 sequence (Q12879 23-1464, other chains not shown): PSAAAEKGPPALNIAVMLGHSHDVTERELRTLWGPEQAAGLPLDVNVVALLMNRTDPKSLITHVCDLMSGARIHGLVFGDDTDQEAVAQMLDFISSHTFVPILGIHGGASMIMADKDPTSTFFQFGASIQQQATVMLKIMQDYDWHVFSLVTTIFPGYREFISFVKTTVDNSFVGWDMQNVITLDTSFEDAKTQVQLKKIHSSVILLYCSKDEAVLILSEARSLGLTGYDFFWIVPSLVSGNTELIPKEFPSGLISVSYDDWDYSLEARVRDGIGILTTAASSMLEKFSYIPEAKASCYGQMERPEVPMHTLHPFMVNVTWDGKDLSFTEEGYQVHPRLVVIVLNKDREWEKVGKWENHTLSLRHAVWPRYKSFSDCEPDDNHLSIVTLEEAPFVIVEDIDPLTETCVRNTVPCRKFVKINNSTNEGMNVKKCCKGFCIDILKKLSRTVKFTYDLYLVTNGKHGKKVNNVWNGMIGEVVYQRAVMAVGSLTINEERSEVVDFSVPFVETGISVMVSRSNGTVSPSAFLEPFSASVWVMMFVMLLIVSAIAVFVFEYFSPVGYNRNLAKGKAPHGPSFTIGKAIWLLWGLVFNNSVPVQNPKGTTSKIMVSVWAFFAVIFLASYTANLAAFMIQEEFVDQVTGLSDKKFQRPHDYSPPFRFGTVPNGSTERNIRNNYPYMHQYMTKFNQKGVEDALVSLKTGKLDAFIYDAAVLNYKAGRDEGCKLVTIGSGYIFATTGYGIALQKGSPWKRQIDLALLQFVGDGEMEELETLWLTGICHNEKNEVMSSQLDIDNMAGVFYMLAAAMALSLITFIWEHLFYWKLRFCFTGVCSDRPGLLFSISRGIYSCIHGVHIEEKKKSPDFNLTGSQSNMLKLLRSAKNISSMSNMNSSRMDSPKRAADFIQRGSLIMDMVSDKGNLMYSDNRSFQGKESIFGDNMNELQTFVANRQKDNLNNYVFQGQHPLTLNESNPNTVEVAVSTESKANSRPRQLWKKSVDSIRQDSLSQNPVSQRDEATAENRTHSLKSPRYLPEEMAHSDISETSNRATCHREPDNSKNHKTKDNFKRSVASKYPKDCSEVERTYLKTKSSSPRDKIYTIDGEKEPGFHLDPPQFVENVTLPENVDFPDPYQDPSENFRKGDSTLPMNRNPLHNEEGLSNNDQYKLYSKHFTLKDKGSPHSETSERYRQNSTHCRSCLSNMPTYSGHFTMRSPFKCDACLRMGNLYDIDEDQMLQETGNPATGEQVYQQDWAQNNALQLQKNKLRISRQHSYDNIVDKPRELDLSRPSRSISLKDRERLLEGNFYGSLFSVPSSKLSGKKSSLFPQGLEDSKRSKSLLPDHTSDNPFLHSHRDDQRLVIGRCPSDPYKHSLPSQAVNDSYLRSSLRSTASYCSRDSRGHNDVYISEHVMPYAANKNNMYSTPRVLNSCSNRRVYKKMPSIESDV
Protocol: On the day before transfection, HEK293 cells were seeded in a 24-well plate with a 10 mm glass sheet, which was coated with polylysine in advance to increase the adhesion capacity of the cells. The plate was added with DMEM medium containing 10% FBS and incubated at 37° C., in 5% CO2 incubator. When the cell fusion reached 60%-70% after 18-24 hours, the plasmid cDNAs containing TRE-GluN1-GluN2A of human GluN1 and GluN2A, tTA, and pCAG-EGFP were transfected into HEK293 by liposome transfection (TRE-GluN1-GluN2A:tTA:pCAG-EGFP is 0.2 μg:0.2 μg:0.02 μg). Before transfection, anew DMEM medium was changed and added with 1 μg/mL Dox (doxycycline) to induce stable expression in the medium, and added with 100 μM D-APV and 10 mM MgCl2 to avoid cell excitatory toxicity caused by NMDAR overexpression. Cells with green fluorescence were selected for electrophysiological recording after transfection for about 24 h.
A glass plate seeded with HEK293 cells was placed in a recording bath and perfused with the extracellular fluid at a rate of 4 mL/min (NaCl 140 mM, KCl 2.8 mM, HEPES 10 mM, CaCl2 1 mM, glycine 0.1 mM, pH 7.2). The channels of the ALA-VC^3 eight-channel pressure perfusion system were filled with extracellular fluid for washing, extracellular fluid containing glutamic acid (100 μM), and extracellular fluid containing glutamic acid and compound to be tested, respectively, with a drop rate of about 1 drop/sec and 10 μL/drop. HEK293 cells with moderate green fluorescence intensity and good adhesion were selected under a fluorescence microscope for recording. The microglass tube of the perfusion system was placed about ten cells away from the cells to be recorded, and the drug was sprayed to the cell surface under the pressure of air (0.02 MPa). The glass electrode was prepared by drawing with a microelectrode drawing instrument with a resistance of 4-6 MΩ and filled with electrode liquid (CsCl 125 mM, HEPES 10 mM, EGTA 11 mM). The microelectrode manipulator was used to slowly push the glass electrode towards the cells. The electrode was attached to the cell membranes and applied with negative pressure, so that a high-resistance seal of more than 1 GΩ was formed between the electrode tip and the cell membrane, and then negative pressure was given to suck through the cell membrane to form a whole-cell recording mode. After the formation of whole-cell recording mode, the cell membrane potential was clamped at −70 mV. The extracellular fluid containing 100 μM glutamic acid, the extracellular fluid containing 100 μM glutamic acid and the compound to be tested, and the extracellular fluid were sprayed to the cell membrane surface sequentially through the perfusion system for 10 s, 20 s, and 10 s to record the NMDA receptor-mediated current and evaluate the inhibitory effect of the compound on GluN2A-containing NMDAR. The experimental process was controlled by pCLAMP 10.6, and the Digidata 1440A digital-to-analog converter was used to complete the generation of stimulus signal and the acquisition of feedback signal.
The ordinate in the figure is the normalized current ratio, which represents the ratio of the current mediated by NMDAR after administration of ketamine and the compound at a concentration of 10 μM to the current mediated by NMDAR before administration. […] Ketamine was used as a positive control.
The inhibitory percentages of the compound according to the present disclosure on NMDAR-mediated current=[…]/NMDAR mediated-current before administration*100%.

Row | SMILES | current inhibitory percentages [%]
1 | CC1(C)CNC2(c3ccccc3)CCCCC2OC1.Cl (centres unmarked) [Compound 20, 3,3-dimethyl-5a-phenyldecahydrobenzo[b][1,4]olanzapine hydrochloride] | 64.86

same assay, conditions: HEK293, read-out: current inhibitory percentages

Row | SMILES | inhibition at 10 µM [%]
2 | CC1(C)CCC2OCCNC2(c2ccccc2)C1 (centres unmarked) [Compound 31, 6,6-dimethyl-4a-phenyloctahydro-2H-benzo[b][1,4]oxazine hydrochloride] | 71.6

same assay, conditions: NMDAR-mediated current, HEK293 cells expressing human GluN1/GluN2A, 100 μM glutamic acid, clamped at −70 mV; compound 10 μM; read-out: current inhibitory percentages

Row | SMILES | inhibition at 10 µM [%]
3 | c1ccc(C23CCCCC2OCCN3)cc1 (centres unmarked) [Compound 1, 4a-phenyloctahydro-2H-benzo[b][1,4]oxazine hydrochloride] | 115
4 | COc1ccccc1C12CCCCC1OCCN2 (centres unmarked) [Compound 2, 4a-(2-methoxyphenyl)octahydro-2H-benzo[b][1,4]oxazine hydrochloride] | 56
5 | Fc1cccc(C23CCCCC2OCCN3)c1 (centres unmarked) [Compound 3, 4a-(3-fluorophenyl)octahydro-2H-benzo[b][1,4]oxazine hydrochloride] | 21.2
6 | Fc1ccc(C23CCCCC2OCCN3)cc1 (centres unmarked) [Compound 4, 4a-(4-fluorophenyl)octahydro-2H-benzo[b][1,4]oxazine formate] | 83.7
7 | Fc1cccc(C23CCCCC2OCCN3)c1F (centres unmarked) [Compound 5, 4a-(2,3-difluorophenyl)octahydro-2H-benzo[b][1,4]oxazine formate] | 54.5
8 | CC1CCC2OCCNC2(c2ccccc2)C1 (centres unmarked) [Compound 7, 6-methyl-4a-phenyloctahydro-2H-benzo[b][1,4]oxazine formate] | 86.4
9 | CCC1CCC2OCCNC2(c2ccccc2)C1 (centres unmarked) [Compound 8, 6-ethyl-4a-phenyloctahydro-2H-benzo[b][1,4]oxazine formate] | 28.9
10 | Cc1cccc(C23CCCCC2OCCN3)c1 (centres unmarked) [Compound 10, 4a-(3-methylphenyl)octahydro-2H-benzo[b][1,4]oxazine formate] | 98.3
11 | Cc1ccccc1C12CCCCC1OCCN2 (centres unmarked) [Compound 12, 4a-(2-methylphenyl)octahydro-2H-benzo[b][1,4]oxazine formate] | 33.7
12 | Cc1ccc(C23CCCCC2OCCN3)cc1 (centres unmarked) [Compound 14, 4a-(4-methylphenyl)octahydro-2H-benzo[b][1,4]oxazine formate] | 45.2
13 | CC1CCCC2(c3ccccc3)NCCOC12 (centres unmarked) [Compound 16, 8-methyl-4a-phenyloctahydro-2H-benzo[b][1,4]oxazine formate] | 107
14 | CC1CCCC2OCCNC12c1ccccc1 (centres unmarked) [Compound 17, 5-methyl-4a-phenyloctahydro-2H-benzo[b][1,4]oxazine formate] | 86.6
15 | CC1CCC2(c3ccccc3)NCCOC2C1 (centres unmarked) [Compound 18, 7-methyl-4a-phenyloctahydro-2H-benzo[b][1,4]oxazine formate] | 84.4
16 | CN1CCOC2CCCCC21c1ccccc1 (centres unmarked) [Compound 19, 4-methyl-4a-phenyloctahydro-2H-benzo[b][1,4]oxazine hydrochloride] | 17.8
17 | COc1cccc(C23CCCCC2OCCN3)c1 (centres unmarked) [Compound 21, 4a-(3-methoxyphenyl)octahydro-2H-benzo[b][1,4]oxazine hydrochloride] | 71.5
18 | FC(F)(F)Oc1cccc(C23CCCCC2OCCN3)c1 (centres unmarked) [Compound 22, 4a-(3-(trifluoromethoxy)phenyl)octahydro-2H-benzo[b][1,4]oxazine hydrochloride] | 45.8
19 | FC(F)(F)c1ccc(C23CCCCC2OCCN3)cc1 (centres unmarked) [Compound 23, 4a-(4-(trifluoromethyl)phenyl)octahydro-2H-benzo[b][1,4]oxazine hydrochloride] | 9.25
20 | Cc1cccc(C)c1C12CCCCC1OCCN2 (centres unmarked) [Compound 24, 4a-(2,6-dimethylphenyl)octahydro-2H-benzo[b][1,4]oxazine hydrochloride] | 73.7
21 | CC(C)(C)c1ccc(C23CCCCC2OCCN3)cc1 (centres unmarked) [Compound 25, 4a-(4-(tertbutyl)phenyl)octahydro-2H-benzo[b][1,4]oxazine hydrochloride] | 11.2
22 | Clc1cccc(C23CCCCC2OCCN3)c1Cl (centres unmarked) [Compound 26, 4a-(2,3-dichlorophenyl)octahydro-2H-benzo[b][1,4]oxazine hydrochloride] | 92
23 | CC(C)c1ccccc1C12CCCCC1OCCN2 (centres unmarked) [Compound 27, 4a-(2-isopropylphenyl)octahydro-2H-benzo[b][1,4]oxazine hydrochloride] | 85.6
24 | Cc1ccc(C)c(C23CCCCC2OCCN3)c1 (centres unmarked) [Compound 28, 4a-(2,5-dimethylphenyl)octahydro-2H-benzo[b][1,4]oxazine hydrochloride] | 87.8
25 | Fc1cccc(C23CCCCC2OCCN3)c1Cl (centres unmarked) [Compound 29, 4a-(2-chloro-3-fluorophenyl)octahydro-2H-benzo[b][1,4]oxazine hydrochloride] | 85.7
26 | Fc1ccc(C23CCCCC2OCCN3)cc1F (centres unmarked) [Compound 30, 4a-(3,4-difluorophenyl)octahydro-2H-benzo[b][1,4]oxazine hydrochloride] | 86.6
27 | Fc1ccc(Cl)c(C23CCCCC2OCCN3)c1 (centres unmarked) [Compound 32, 4a-(2-chloro-5-fluorophenyl)octahydro-2H-benzo[b][1,4]oxazine hydrochloride] | 102
28 | CCOc1cccc(C23CCCCC2OCCN3)c1 (centres unmarked) [Compound 33, 4a-(3-ethoxyphenyl)octahydro-2H-benzo[b][1,4]oxazine hydrochloride] | 76.4
29 | COc1ccc(C23CCCCC2OCCN3)c(Cl)c1 (centres unmarked) [Compound 34, 4a-(2-chloro-4-methoxyphenyl)octahydro-2H-benzo[b][1,4]oxazine hydrochloride] | 48.6
30 | Fc1cccc(Cl)c1C12CCCCC1OCCN2 (centres unmarked) [Compound 36, 4a-(2-chloro-6-fluorophenyl)octahydro-2H-benzo[b][1,4]oxazine hydrochloride] | 42.5
31 | Cc1cscc1[C@]12CCCC[C@H]1OCCN2 [Compound 40, (4aR,8aR)-4a-(4-methyl-3-thiophenyl)octahydro-2H-benzo[b][1,4]oxazine hydrochloride] | 89.3

tested on: mice; experiment: High dose toxicity test (behavior of mice after i.p. administration); format: in vivo; conditions: medium dose 100 mg/kg body weight, observed about one hour, hydrochloride, 100 mg/kg
Protocol: • 1. Experiments were performed in a quiet environment where animals needed to be weighed and acclimatized in the laboratory room for at least 30 min before the experiment. • 2. The compound to be tested was dissolved with 0.9% physiological saline at a concentration of 10 mg/ml. According to the body weight of mice, a corresponding volume of the compound was intraperitoneal injected (i.p.), so as to provide the target dose. • 3. The mice after administration were placed in transparent observation boxes, and the behavioral changes of the mice were recorded by video and observed for about one hour. (Note: During the observation period, if a mouse was lying still on the stomach, the mouse was turned over with your hand to check whether the righting reflex (RR) of the mouse disappeared. If it disappeared, the mouse was in the state of anesthesia, the time of anesthesia in the mouse was recorded). • 4. After one hour of observation, the mice were returned to the feeding cage and the observation boxes were wiped with 75% alcohol so that the information left over from the previous round (e.g. animal stool, urine and other odors) would not affect the next test results. Animals were replaced for the next round to continue the experiment.
Mice died after ketamine administration.
According to Rodent Epileptiform Behavior Scale score, Compound 9 induced epileptiform behavior in mice with a maximum score of 3. […] According to the Rodent Epileptiform Behavior Scale score. Compound 41 and 42 induced epileptiform behavior in mice with a maximum score of 1. […] The epileptiform behavior was scored according to the Rodent Epileptiform Behavior Scale score.

Row | SMILES | behavior during observation
32 | Clc1ccccc1[C@]12CCCC[C@H]1OCCN2 [Compound 43, (4aR,8aR)-4a-(2-chlorophenyl)octahydro-2H-benzo[b][1,4]oxazine hydrochloride] | no obvious abnormalities; also recorded: No abnormal
